Source: patent US5232930A, “2-heteroaryl-substituted benzodioxoic having 5-lipoxygenase inhibitory activity” (Imperial Chemical Industries PLC, priority 1991, dated 1993)

Tests used:
[1] = target: T1, 5-LO (Homo sapiens, UniProt P09917); experiment: test a) in vitro heparinised human blood, calcium ionophore A23187 challenge, LTB4 radioimmunoassay; type: cell-based
T1 construct: incubating a test compound with heparinised human blood, prior to challenge with the calcium ionophore A23187; from tissue; host or cells: heparinised human blood (endogenous enzyme of the blood cells)
T1 sequence (P09917 1-674): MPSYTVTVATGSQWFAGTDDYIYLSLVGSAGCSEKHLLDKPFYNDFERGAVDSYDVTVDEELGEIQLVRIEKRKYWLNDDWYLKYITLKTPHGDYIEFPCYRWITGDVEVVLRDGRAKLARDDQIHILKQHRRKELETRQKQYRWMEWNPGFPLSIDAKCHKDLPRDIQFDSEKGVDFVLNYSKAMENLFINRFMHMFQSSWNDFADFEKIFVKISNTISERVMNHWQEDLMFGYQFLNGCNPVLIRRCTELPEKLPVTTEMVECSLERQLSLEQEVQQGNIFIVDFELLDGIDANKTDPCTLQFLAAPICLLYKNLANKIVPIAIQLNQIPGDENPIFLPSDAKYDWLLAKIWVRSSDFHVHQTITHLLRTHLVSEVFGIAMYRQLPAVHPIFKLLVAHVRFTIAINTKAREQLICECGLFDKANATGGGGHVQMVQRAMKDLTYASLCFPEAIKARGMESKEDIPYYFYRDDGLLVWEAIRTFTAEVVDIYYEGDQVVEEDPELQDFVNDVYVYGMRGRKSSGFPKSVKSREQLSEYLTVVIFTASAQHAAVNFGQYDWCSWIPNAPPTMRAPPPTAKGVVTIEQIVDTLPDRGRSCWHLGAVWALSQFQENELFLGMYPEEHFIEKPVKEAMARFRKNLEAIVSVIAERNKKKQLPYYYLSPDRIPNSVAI
Procedure: (§1) As stated previously, the benzodioxole derivatives of the formula I are inhibitors of the enzyme 5-LO.
a) An in vitro assay system involving incubating a test compound with heparinised human blood, prior to challenge with the calcium ionophore A23187 and the indirectly measuring the inhibitory effects on 5-LO by assaying the amount of LTB4 using specific radioimmunoassays described by Carey and Forder (F. Carey and R.A. Forder, Prostaglandins Leukotrienes Med., 1986, 22, 57; Prostaglandins, 1984, 28, 666; Brit. J. Pharmacol. 1985, 84, 34P) which involve the use of a protein-LTB4 conjugate produced using the procedure of Young et alia (Prostaglandins, 1983, 26(4), 605-613). The effects of a test compound on the enzyme cyclooxygenase (which is involved in the alternative metabolic pathway for arachidonic acid and gives rise to prostaglandins, thromboxanes and related metabolites) may be measured at the same time using the specific radioimmunoassay for thromboxane B2 (T×B2) described by Carey and Forder (see above). This test provides an indication of the effects of a test compound against 5-LO and also cyclooxygenase in the presence of blood cells and proteins. It permits the selectivity of the inhibitory effect on 5-LO or cyclooxygenase to be assessed.

[2] = target: T2, 5-LO (Rattus norvegicus, UniProt P12527); experiment: test c) in vivo zymosan-induced LTB4 liberation in rat air pouch; details: oral, male rats, 3 hours
T2 construct: liberation of LTB4 induced by zymosan within an air pouch generated within the subcutaneous tissue of the back of male rats; from tissue; host or cells: live male rats, zymosan-inflamed subcutaneous air pouch (endogenous enzyme)
T2 sequence (P12527 1-673): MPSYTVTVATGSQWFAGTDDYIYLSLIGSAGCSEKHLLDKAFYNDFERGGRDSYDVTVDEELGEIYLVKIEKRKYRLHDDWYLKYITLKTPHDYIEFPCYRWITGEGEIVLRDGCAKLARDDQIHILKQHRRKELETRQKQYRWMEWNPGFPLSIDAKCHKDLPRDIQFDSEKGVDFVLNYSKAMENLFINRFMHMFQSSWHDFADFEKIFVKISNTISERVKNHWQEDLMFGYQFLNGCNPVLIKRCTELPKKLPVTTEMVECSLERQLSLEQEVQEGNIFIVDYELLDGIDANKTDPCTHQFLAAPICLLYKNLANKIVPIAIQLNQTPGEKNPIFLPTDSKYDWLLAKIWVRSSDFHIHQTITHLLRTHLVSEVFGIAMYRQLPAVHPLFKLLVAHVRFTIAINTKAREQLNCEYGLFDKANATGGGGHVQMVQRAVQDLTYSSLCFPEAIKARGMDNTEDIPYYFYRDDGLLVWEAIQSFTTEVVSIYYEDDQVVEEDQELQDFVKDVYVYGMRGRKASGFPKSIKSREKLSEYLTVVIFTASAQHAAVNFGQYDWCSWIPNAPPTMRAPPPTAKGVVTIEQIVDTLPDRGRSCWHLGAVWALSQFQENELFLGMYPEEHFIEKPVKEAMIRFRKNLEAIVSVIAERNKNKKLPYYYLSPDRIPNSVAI
Procedure: as §1
c) An in vivo system involving measuring the effects of a test compound administered orally against the liberation of LTB4 induced by zymosan within an air pouch generated within the subcutaneous tissue of the back of male rats. The rats are anaesthetised and air pouches are formed by the injection of sterile air (20 ml). A further injection of air (10 ml) is similarly given after 3 days. At 6 days after the initial air injection the test compound is administered (usually orally as the suspension produced when a solution of the test compound in dimethylsulphoxide is added to hydroxypropylmethylcellulose), followed by the intrapouch injection of zymosan (1 ml of a 1% suspension in physiological saline). After 3 hours the rats are killed, the air pouches are lavaged with physiological saline, and the specific radioimmunoassay described above is used to assay LTB4 in the washings. This test provides an indication of inhibitory effects against 5-LO in an inflammatory milieu.

## COC1(c2ccc3c(c2)OC(c2ccc4c(ccc(=O)n4C)c2)O3)CCOCC1 (centres unmarked) [5-(4-methoxytetrahydropyran-4-yl)-2-(1-methyl-2-oxo-1,2-dihydroquinolin-6-yl)benzo-1,3-dioxole]
[1]
  IC50: 380 nM
[2]
  ED50: < 0.5 mg/kg
